{"source": "paper PMC11990670", "about": "“Exploring the Volatility, Phase Transitions, and Solubility Properties of Five Halogenated Benzaldehydes” (Molecules, 2025)", "key": {"[1]": {"test": "Equilibrium solubility in water, saturation shake-flask method with UV-vis", "conditions": "25 °C, thermodynamic from solid", "experimental": "(§1) The concentration was measured by absorbances at 260 nm for 4-chlorobenzaldehyde, 263 nm for 4-bromobenzaldehyde and 2,4-dichlorobenzaldehyde, 297 nm for 2,6-dichlorobenzaldehyde, and 306 nm for 2,3-dichlorobenzaldehyde, using a Cary-60 UV–vis (Agilent) spectrophotometer. X-ray diffraction (XRD) and differential scanning calorimetry of residual solids were used to identify the eventual phase transformations. The purified samples of each compound studied were used for all experimental determinations, including the solubility measurements. After reaching the equilibrium, the residual solid was dried and analyzed using both DSC and XRD. The melting properties obtained from DSC were compared with those of the original purified sample, following the same procedure for the XRD analysis. […] As an example, the supporting information includes two thermograms and two XRD patterns for 2,4-dichlorobenzaldehyde (Figures S1 and S2). […] Equation (4) was derived from Equation (5), which is widely applicable to the solubility of solids.(4) ΔhydrGm°/kJ·mol^−1=9.17−5.71·log10(Scr/mol·m^−3)−ΔcrgGm°/kJ·mol^−1 (5) S=p^°/RTexpΔcrgGm°+ΔhydrGm°/−RT\n(§2) An excess amount of each compound was added to a known volume of water in triplicate. […] After stirring, the solid phase was allowed to settle for 2 h. The pH of the saturated solutions was measured using a Mettler Toledo (Greifensee, Switzerland) FiveEasy F20 pH Meter calibrated with standard aqueous solutions (pH 7.00 and 4.01 or 10.1). Those solutions were then filtered through a 0.22 μm syringe hydrophilic filter (13 mm, PTFE, Labfil, Zhejiang, China) and diluted to the required concentration. The concentration of the compounds, expressed in molarity, was measured by absorbances using a Cary-60 UV–vis spectrophotometer (Agilent Technologies, Santa Clara, CA, USA) at 298.15 K (single cell Peltier accessory, ±0.15 K). The results reported in Table 6 are averaged from at least three replicates. Calibration was performed using solutions of known concentrations of each substance in water. These solutions were prepared by adding a precise mass of the substance and a specific volume of the solvent to a flask, then mixing until the substance was fully dissolved. The absorbance of these solutions was measured, and calibration curves were created."}, "[2]": {"test": "pH of the saturated aqueous solutions", "format": "physicochemical", "conditions": "saturated aqueous solution of the solubility experiment", "experimental": "as §1, §2"}, "[3]": {"test": "Gibbs energy of hydration and Henry's law volatility constant calculated from sublimation and solubility data", "conditions": "25 °C", "experimental": "as §1\nThe standard states in Equation (5) are p° = 1 × 10^5 Pa for ΔcrgGm° , c° = 1 mol·L^−1 for ΔhydrGm° and s° = 1 mol·m^−3 for solubility. Using the experimental results of ΔhydrGm° , calculated through Equation (4), the values of Henry’s law volatility constants, KHpc, were determined in the logarithm form by Equation (6), that was adapted from Modarressi et al.."}, "[4]": {"test": "Vapor pressures of crystalline and liquid phases, static method with capacitance diaphragm gauge", "format": "physicochemical", "text": "A previously described and tested static apparatus was used to measure the vapor pressures of the condensed phases (both crystalline and liquid) of the five compounds studied. This installation employs MKS capacitance diaphragm absolute gauges, operating at self-regulated constant temperatures. Our lab is equipped with three pressure gauges. Gauge I, a Baratron 631A01TBEH (MKS instruments, Andover, MA, USA) (Tgauge = 423 K), measures pressures in the range of 0.5 to 1.3 × 10^2 Pa and operates within a temperature range of 253 to 413 K. Gauge II, the instrument used in this study, is a Baratron 631A11TBFP (MKS instruments, Andover, MA, USA) (Tgauge = 473 K), capable of measuring pressures from 0.5 to 1.3 × 10^3 Pa within a temperature range of 253 to 433 K and gauge III, a Baratron 631D02T8FP (MKS instruments, Andover, MA, USA) (Tgauge = 473 K), designed to measure pressures between 0.5 Pa and 2.6 × 10^2 Pa, also within a temperature range of 253 to 433 K. The temperatures of the samples were measured using a Pt100 platinum resistance thermometer, calibrated by comparison with a standard platinum resistance thermometer (SPRT: Tinsley Precision Instruments Ltd, London, England). To prevent vapor condensation, the tubing connecting the cell containing the condensed sample to the pressure gauge is maintained at a temperature higher than that of the sample but lower than that of the gauge. The uncertainty in temperature measurements is estimated to be u(T/K) = ±0.01, and the expanded uncertainties (0.95 confidence level, k = 2) in pressure measurements are given by the expression U(p/Pa) = 0.1 + 0.0050 (p/Pa) for the gauge used. Samples were thoroughly degassed before starting the vapor pressure measurements, ensuring consistent readings at specific temperatures and eliminating any residual volatile substances, including water."}}, "note": "Marks after values point to notes of the source that are not given here."}
{"smiles": "O=Cc1cccc(Cl)c1Cl", "note": "[2,3-Dichlorobenzaldehyde]", "values": [{"measurement": "solubility at 72 h", "setting": "[1]", "value": 853, "unit": "µM"}, {"measurement": "pH of the saturated solution", "setting": "[2]", "value": 6.43}, {"measurement": "Gibbs energy of hydration ΔhydrGm°", "setting": "[3]; calculated by Equation (4)", "value": -3.99, "unit": "kcal/mol"}, {"measurement": "log10(KHpc/kPa·m^3·mol^−1) Henry's law volatility constant", "setting": "[3]; calculated by Equation (6)", "value": "−2.53"}, {"measurement": "KHpc×10^3 Henry's law volatility constant", "setting": "[3]; value is KHpc multiplied by 10^3", "value": 2.95, "unit": "kPa·m^3·mol^−1"}, {"measurement": "vapor pressure p", "setting": "[4]; crystalline phase, T = 284.21 K", "value": 0.49, "unit": "Pa"}, {"measurement": "vapor pressure p", "setting": "[4]; crystalline phase, T = 286.16 K", "value": 0.63, "unit": "Pa"}, {"measurement": "vapor pressure p", "setting": "[4]; crystalline phase, T = 288.13 K", "value": 0.78, "unit": "Pa"}, {"measurement": "vapor pressure p", "setting": "[4]; crystalline phase, T = 290.09 K", "value": 0.99, "unit": "Pa"}, {"measurement": "vapor pressure p", "setting": "[4]; crystalline phase, T = 292.06 K", "value": 1.26, "unit": "Pa"}, {"measurement": "vapor pressure p", "setting": "[4]; crystalline phase, T = 294.04 K", "value": 1.58, "unit": "Pa"}, {"measurement": "vapor pressure p", "setting": "[4]; crystalline phase, T = 296.22 K", "value": 2.00, "unit": "Pa"}, {"measurement": "vapor pressure p", "setting": "[4]; crystalline phase, T = 298.17 K", "value": 2.47, "unit": "Pa"}, {"measurement": "vapor pressure p", "setting": "[4]; crystalline phase, T = 299.97 K", "value": 3.02, "unit": "Pa"}, {"measurement": "vapor pressure p", "setting": "[4]; crystalline phase, T = 302.18 K", "value": 3.78, "unit": "Pa"}, {"measurement": "vapor pressure p", "setting": "[4]; crystalline phase, T = 303.89 K", "value": 4.58, "unit": "Pa"}, {"measurement": "vapor pressure p", "setting": "[4]; crystalline phase, T = 305.78 K", "value": 5.63, "unit": "Pa"}, {"measurement": "vapor pressure p", "setting": "[4]; crystalline phase, T = 308.08 K", "value": 7.12, "unit": "Pa"}, {"measurement": "vapor pressure p", "setting": "[4]; crystalline phase, T = 309.86 K", "value": 8.45, "unit": "Pa"}, {"measurement": "vapor pressure p", "setting": "[4]; crystalline phase, T = 312.03 K", "value": 10.58, "unit": "Pa"}, {"measurement": "vapor pressure p", "setting": "[4]; crystalline phase, T = 313.92 K", "value": 12.78, "unit": "Pa"}, {"measurement": "vapor pressure p", "setting": "[4]; crystalline phase, T = 315.60 K", "value": 15.22, "unit": "Pa"}, {"measurement": "vapor pressure p", "setting": "[4]; crystalline phase, T = 317.96 K", "value": 18.67, "unit": "Pa"}, {"measurement": "vapor pressure p", "setting": "[4]; crystalline phase, T = 319.59 K", "value": 21.97, "unit": "Pa"}, {"measurement": "vapor pressure p", "setting": "[4]; crystalline phase, T = 321.86 K", "value": 27.35, "unit": "Pa"}, {"measurement": "vapor pressure p", "setting": "[4]; crystalline phase, T = 323.56 K", "value": 31.92, "unit": "Pa"}, {"measurement": "vapor pressure p", "setting": "[4]; crystalline phase, T = 325.70 K", "value": 39.35, "unit": "Pa"}, {"measurement": "vapor pressure p", "setting": "[4]; crystalline phase, T = 327.48 K", "value": 45.52, "unit": "Pa"}, {"measurement": "vapor pressure p", "setting": "[4]; crystalline phase, T = 329.63 K", "value": 56.32, "unit": "Pa"}, {"measurement": "vapor pressure p", "setting": "[4]; crystalline phase, T = 331.62 K", "value": 65.87, "unit": "Pa"}, {"measurement": "vapor pressure p", "setting": "[4]; liquid phase, T = 335.54 K", "value": 91.33, "unit": "Pa"}, {"measurement": "vapor pressure p", "setting": "[4]; liquid phase, T = 337.55 K", "value": 103.4, "unit": "Pa"}, {"measurement": "vapor pressure p", "setting": "[4]; liquid phase, T = 339.54 K", "value": 117.4, "unit": "Pa"}, {"measurement": "vapor pressure p", "setting": "[4]; liquid phase, T = 341.49 K", "value": 133.6, "unit": "Pa"}, {"measurement": "vapor pressure p", "setting": "[4]; liquid phase, T = 343.48 K", "value": 150.6, "unit": "Pa"}, {"measurement": "vapor pressure p", "setting": "[4]; liquid phase, T = 345.45 K", "value": 169.9, "unit": "Pa"}, {"measurement": "vapor pressure p", "setting": "[4]; liquid phase, T = 347.44 K", "value": 189.1, "unit": "Pa"}, {"measurement": "vapor pressure p", "setting": "[4]; liquid phase, T = 349.41 K", "value": 214.0, "unit": "Pa"}, {"measurement": "vapor pressure p", "setting": "[4]; liquid phase, T = 351.50 K", "value": 240.6, "unit": "Pa"}, {"measurement": "vapor pressure p", "setting": "[4]; liquid phase, T = 353.48 K", "value": 267.2, "unit": "Pa"}, {"measurement": "vapor pressure p", "setting": "[4]; liquid phase, T = 355.36 K", "value": 297.6, "unit": "Pa"}, {"measurement": "vapor pressure p", "setting": "[4]; liquid phase, T = 357.43 K", "value": 335.9, "unit": "Pa"}, {"measurement": "vapor pressure p", "setting": "[4]; liquid phase, T = 359.33 K", "value": 371.6, "unit": "Pa"}, {"measurement": "vapor pressure p", "setting": "[4]; liquid phase, T = 361.39 K", "value": 419.6, "unit": "Pa"}, {"measurement": "vapor pressure p", "setting": "[4]; liquid phase, T = 363.27 K", "value": 461.9, "unit": "Pa"}, {"measurement": "vapor pressure p", "setting": "[4]; liquid phase, T = 365.34 K", "value": 516.4, "unit": "Pa"}, {"measurement": "vapor pressure p", "setting": "[4]; liquid phase, T = 367.35 K", "value": 569.4, "unit": "Pa"}, {"measurement": "vapor pressure p", "setting": "[4]; liquid phase, T = 369.27 K", "value": 630.4, "unit": "Pa"}, {"measurement": "vapor pressure p", "setting": "[4]; liquid phase, T = 371.17 K", "value": 695.2, "unit": "Pa"}, {"measurement": "vapor pressure p", "setting": "[4]; liquid phase, T = 373.23 K", "value": 767.3, "unit": "Pa"}, {"measurement": "vapor pressure p", "setting": "[4]; liquid phase, T = 375.13 K", "value": 843.4, "unit": "Pa"}, {"measurement": "vapor pressure p", "setting": "[4]; liquid phase, T = 377.17 K", "value": 930.5, "unit": "Pa"}, {"measurement": "vapor pressure p", "setting": "[4]; liquid phase, T = 379.07 K", "value": 1011, "unit": "Pa"}, {"measurement": "vapor pressure p", "setting": "[4]; liquid phase, T = 381.03 K", "value": 1104, "unit": "Pa"}, {"measurement": "vapor pressure p", "setting": "[4]; supercooled liquid, T = 327.59 K", "value": "54.84 ^d Pa"}, {"measurement": "vapor pressure p", "setting": "[4]; supercooled liquid, T = 329.66 K", "value": "62.05 ^d Pa"}, {"measurement": "vapor pressure p", "setting": "[4]; supercooled liquid, T = 331.60 K", "value": "71.02 ^d Pa"}, {"measurement": "vapor pressure p", "setting": "[4]; supercooled liquid, T = 333.65 K", "value": "80.84 ^d Pa"}]}
